In patent US11214586B2, “Rhodamine triplet state complex and preparation and photodynamic therapy (PDT) study thereof” (SOUTHERN UNIVERSITY OF SCIENCE AND TECHNOLOGY, priority 2018, dated 2022):

Assays:
[1] = Octanol-water partition coefficient
Source text: Octanol-water partition coefficients (log Po/w)^[27] of bpy-Rho and M-Rho have been measured in order to study their lipophilic/hydrophilic characters. The higher is the log Po/w value associated with the dye, the higher is its lipophilic character.

[2] = Nanosecond transient absorption difference spectroscopy; format: physicochemical; conditions: measured by transient absorption in CH3CN
Source text: Nanosecond transient absorption (TA) difference spectroscopy was employed to investigate the triplet excited states of M-Rho (FIG. 2c and FIGS. 16-19). Upon pulsed laser excitation at 355 nm, an intense bleaching signal at 575 nm with lifetime in microsecond range is observed, which is ascribed to the depletion of ground state rhodamine absorption. Such a long-lived excited state should be localized on the rhodamine unit, and is assigned as the ^3IL excited state of rhodamine in M-Rho. The absorption signal at 610-800 nm is due to the rhodamine ^3IL excited state absorption. In contrast, no signal from this triplet excited state is detected in bpy-Rho because of the lack of efficient ISC. On the other hand, only the transient absorption signals originating from the corresponding ^3MLCT excited states are observed in the rhodamine-free analogues (FIGS. 20-21).
The UV-vis absorption spectra were taken on Cary 60 UV-vis spectrophotometer. Steady-state emission spectra at room temperature were recorded on an Edinburgh Instruments FLS980 fluorescence spectrometer. Quartz cuvettes (path length=1 cm) were used in all spectrophotometric and fluorometric measurements. NMR spectra were recorded on a Bruker AVANCE 400 (^1H NMR for 400 MHz and ^13C NMR for 100 MHz) Fourier transform NMR spectrometer with chemical shifts reported relative to tetramethylsilane, (CH3)4Si. High-resolution MS spectra were performed on an Orbitrap Fusion Tribrid mass spectrometer. Elemental analyses of the newly synthesized complexes were preformed on a Elementar Vario EL Cube elemental analyzer at Sun Yat-sen University. The nanosecond time-resolved transient-difference absorption spectra were detected by using Edinburgh LP920 instruments (Edinburgh Instruments, U.K.). All solutions for transient absorption studies were degassed on a high-vacuum line in a two-compartment cell consisting of a 10-ml Pyrex bulb and a 1-cm or 4-mm path length quartz cuvette and sealed from the atmosphere by a Bibby Rotaflo HP6 Teflon stopper. The solutions were rigorously degassed with at least four successive freeze-pump-thaw cycles. Emission lifetime measurements were performed using a conventional laser system. The excitation source used was a 355-nm output (third harmonic) of a Spectra-Physics Quanta-Ray Q-switched GCR-150-10 pulsed Nd-YAG laser. Luminescence decay signals were detected by a Hamamatsu R928 PMT and recorded on a Tektronix Model TDS-620A (500 MHz, 2 GS/s) digital oscilloscope and analyzed using a program for exponential fits. Absolute quantum yields were measured by HAMAMATSU-C11347.

[3] = Singlet oxygen quantum yield; format: physicochemical
Source text: The long-lived triplet excited state of rhodamine is anticipated to interact with molecular oxygen (^3O2) to form singlet oxygen (^1O2), which is useful for PDT applications. The ability of M-Rho to produce ^1O2 has been evaluated spectroscopically by the observation of ^1O2 emission at about 1270 nm (inset of FIG. 2b). Remarkable ^1O2 emission is observed in Ir-Rho, Re-Rho and Pt-Rho but not for Rh-Rho and bpy-Rho. By monitoring the diminution of the characteristic absorption of the ^1O2 scavenger 1,3-diphenylisobenzofuran (DPBF) at 410 nm, ^1O2 generation is also confirmed and the corresponding quantum yields (ϕΔ) for the complexes are determined (Table 1). […] The rate and quantum yield of ^1O2 generation are found to vary with different metal systems.
Singlet oxygen quantum yield was determined by comparing the ^1O2 emission intensity of Rose Bengal and M-Rho.

[4] = Singlet oxygen emission at about 1270 nm; format: physicochemical; conditions: in CH3CN
Method: Singlet oxygen emission was detected by using FLS-980 spectrofluorometer. All of the compounds were dissolved in CH3CN. The absorbance at 532 nm was adjusted to be around 1.7 for all the compounds. Upon measurements, an 850 nm long-pass filter was inserted in between the sample and the detector to avoid many high-order diffraction from the visible emission.

[5] = tested on: MCF-7 cells; assay: Phototoxicity, CCK-8 assay and calcein-AM/PI staining; format: cell-based, human; conditions: 11-W lamp
Method: • 1. MCF-7 cells were seeded at 8×10^3-1×10^4 cells/well in 96 well plates then incubated for 24 h in 5% CO2 at 37° C. The stock solutions of the complexes(10 mM in DMSO) were diluted to appropriate concentrations with the complete medium and added to the cells to give final complexes concentrations (1, 2, 5, 10 μM). After incubation for 2 h, the well plate were irradiated with 11 W lamp 30 min. To achieve more uniform irradiation, the entire well plate was gently orbited on the shaker. After the irradiation, the cells were again incubated for 2 h, after which the cytotoxicity was determined by CCK8 assay and expressed as a percent of the controls (cells exposed to light in the absence of the complexes). • 2. The MCF-7 cells(500 cells/well) were seeded in eight-well chambered coverglasses (lab-Tek, Nunc, USA), and then incubated for 24 h in 5% CO2 at 37° C. Next, added to complexes(rho-bpy, rho-bpy-Pt-ph, rho-bpy-Rh-ppy, rho-bpy-Re and rho-bpy-Ir-ppy) in medium make the final concentrations of 5 μM complexes. After incubation for 2 h, the eight-well plate were irradiated with 11 W lamp 30 min. The flowing, fixed with 4% paraformaldehyde solution. After staining with calcein-AM and (Propidium iodide) PI, Leica TCS SP5 confocal laser scanning microscope (GER) was used to observe the viable and dead cells.

[6] = tested on: MCF-7 tumor-bearing mice; assay: In vivo NIRF imaging, biodistribution and tumor accumulation
Method: The procedures were approved by the Animal Care and Use Committee (Shenzhen Institutes of Advanced Technology, Chinese Academy of Sciences). Four-8-week-old female BALB/c mice or nude mice (Vital River Laboratory Animal Technology Co. Ltd., China) were subcutaneously injected with MCF-7 cells (1×10^6) in the flank region.
The Maestro GNIR Flex imaging system and analysis with software from CRi was used to image tumor-bearing animals over time following i.v. treatment with Ir-Rho (200 μM, 150 μl). At each time point, the mouse was imaged at 600 nm excitation and 650 nm emission. At 24 h post injection, tumors and major organs were excised for ex vivo NIRF imaging to determine the tissue distribution of Ir-Rho. All main organs were cut with similar thickness and imaged at 600 nm excitation and 650 nm emission. The average fluorescence intensity of organs was from a region of interest (ROI) placed over the area of the organs on the image.

[7] = ex vivo NIRF, 24 h post-injection

## CCN(CC)c1ccc2c(-c3ccnc(-c4cc(C)ccn4)c3)c3ccc(=[N+](CC)CC)cc-3oc2c1.F[P-](F)(F)(F)(F)F.F[P-](F)(F)(F)(F)F.c1ccc(-c2cccc[c]2[Ir+][c]2ccccc2-c2ccccn2)nc1 [Ir-Rho]
[1]
  log Po/w: −0.39
[2]
  TT (triplet-state lifetimes): 0.82 μs
[3]; among M-Rho
  rate and quantum yield of 1O2 generation, ranking: highest QY
[3]; relative to rose bengal (ΦΔ = 0.76)
  ΦΔ (singlet oxygen quantum yield): 0.62
[4]
  1O2 emission at about 1270 nm: Remarkable
[5]; concentration of 10 μM
  cell death upon irradiation: Significant cell death
[5]; among M-Rho
  PDT performance, ranking: best PDT performance
[6]; [7]
  liver uptake: relatively low liver uptake
  tumor accumulation: good tumor accumulation
[6]; i.v. injection via the tail vein, 200 μM, 150 μl
  time of peak tumor uptake: 24 h
